Data taken from patent US20130131065A1, “TREATMENT OF TYPE 2 DIABETES” (priority 2010, published 2013).

Test system: Rat pancreatic islets
Experiment: Apoptosis (cytoplasmic nucleosomes, Cell Death Detection ELISA) in cultured rat pancreatic islets with or without cytokine cocktail
Assay type: cell-based
Description: Male Wistar rat islets (Elevage Janvier, Le Genest-St-Isle, France) were isolated using collagenase (Serva, Heidelberg, Germany) and cultured in RPMI at 11 mM glucose (Invitrogen, CA, USA) supplemented with 10% FCS (Fetal Calf Serum), 100 Units/ml penicillin, 100 μg/ml streptomycin and 100 μg/ml gentamycin in low-attachment 24-well plates (Corning, N.Y., USA). These islets were incubated with a cocktail of rat cytokines (TNF-alpha, IL-1beta and INF-gamma each at 2 ng/ml) for 24 hours (Brun T. et al., 2004 and 2007). […] Aliquots of the medium were used to measure insulin accumulated during the culture period using immune enzyme assay kits (Brunchwig, Basel, Switzerland). Furthermore, quantification of cytoplasmic nucleosomes, a direct indicator of apoptosis, was performed with the Cell Death Detection ELISA kit (Roche, Basel, Switzerland). Each condition was tested with 50 rat islets in duplicate and four independent experiments were performed. The results are provided as mean+/−sem and statistical analyses were performed using one-way ANOVA with Bonferroni and Dunnett post-hoc tests.
The conditions without cytokines allowed the analysis of the specific effect of the compound on islets while the combination of the drug with cytokines allowed the study of the effect of Imeglimin on islets under an inflammatory stress. To measure cell death in islets, quantification of cytoplasmic nucleosomes in islet cells, a consequence of DNA fragmentation during apoptosis (Robertson et al., 2000), was performed. […] Furthermore, a negative control and a positive control were added to the conditions with and without cytokines to test the effectiveness of the protocol. […] The results of the quantification of cell death for each condition are presented on FIG. 1.

[1] = with cytokines (TNF-alpha, IL-1beta, INF-gamma each 2 ng/ml, 24 hours), compound at 100 μM
[2] = with cytokines (each 2 ng/ml, 24 hours), compound at 1 mM
[3] = with cytokines (each 2 ng/ml, 24 hours), Exendin-4 at 10 nM

Molecule | protection of the islets from the cytokine stress (both doses (100 μM and 1 mM), cytokines each 2 ng/ml, 24 hours) | less apoptosis than cytokine-stressed islets [1] [%] | less apoptosis than untreated islets [1] [%] | protection: less apoptosis than cytokine-stressed islets [2] [%] | protection: less apoptosis than untreated islets [2] [%] | more potent than Exendin-4 (protective effect) (with cytokines, lower concentration tested (100 μM) vs Exendin-4 at 10 nM) [%] | level of protection relative to the Exendin-4 level (without cytokines, compound at 100 μM vs Exendin-4 at 10 nM) | less apoptosis than untreated islets (without cytokines, compound at 100 μM, 24 hours) [%] | drop in apoptosis vs cytokine-stressed islets [3] [%] | drop in apoptosis vs untreated islets [3] [%] | decrease in cell death (vs untreated islets) (without cytokines, Exendin-4 at 10 nM, 24 hours) [%]
CC1N=C(N)NC(N(C)C)=N1.Cl (single isomer, unassigned; (+)) [(+)-2-amino-3,6-dihydro-4-dimethylamino-6-methyl-1,3,5-triazine hydrochloride] | completely protected | 37 | 29 | 25 | 16 | ~50 | two thirds | 10 |  |  | 
Exendin-4 [reference compound] |  |  |  |  |  |  |  |  | 29 | 20 | 16
